Series [1] in a line: Maximum tolerated dose determination. The following applies: p.o., six rats per dose level, observed 4 days. Type of series: in vivo, rat. As for the experimental part:
Maximum Tolerated Dose Determination.
In order to determine the maximum dose of JT09 that can be tolerated, its dose level was increased until the maximum tolerated dose (MTD) was identified or, if MTD dose was not reached, the maximum-administered dose (MAD). […] Six rats were included at each dose level (50, 70, and 90 mg/kg, p.o.). The animals were observed twice daily; body weights and detailed clinical observations for behavioral toxicity (porphyrin staining, changes in activity levels, changes in grooming habits, convulsions, catalepsy, muscular rigidity, and excessive vocalization) were made daily for 4 days after dosing at each level. Doses were chosen based on the compound's ED50 for analgesic potency.

In a further series the target is kappa opioid receptor (Homo sapiens, UniProt P41145). Kind of series: Opioid receptor activation assay, DiscoveRx PathHunter Beta-Arrestin, kappa. Type of series: cell-based. From the text: Opioid Receptor Activation Assay.
kappa opioid receptor, sequence (P41145 whole entry, the tested form may be a part): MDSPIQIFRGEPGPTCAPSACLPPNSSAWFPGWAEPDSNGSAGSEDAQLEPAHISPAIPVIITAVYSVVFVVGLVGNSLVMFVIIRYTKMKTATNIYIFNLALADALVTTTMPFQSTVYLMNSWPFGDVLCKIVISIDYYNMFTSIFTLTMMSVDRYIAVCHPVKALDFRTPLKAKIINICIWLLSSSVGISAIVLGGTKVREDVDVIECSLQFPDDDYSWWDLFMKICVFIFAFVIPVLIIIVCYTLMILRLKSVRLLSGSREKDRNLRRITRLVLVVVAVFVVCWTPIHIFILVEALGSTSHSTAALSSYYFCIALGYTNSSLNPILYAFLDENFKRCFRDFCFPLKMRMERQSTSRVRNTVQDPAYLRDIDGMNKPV
PathHunter™ Beta-Arrestin GPCR Functional Profiling and Screening cell lines that express the individual opioid receptors were obtained from DiscoveRx (Fremont, Calif.). These cells express the kappa (or mu or delta) opioid receptor fused to a proprietary β-galactosidase enzyme fragment and the […]-arrestin gene fused to an enzyme acceptor (the remaining fragment of β-galactosidase). Upon activation of the receptor, β-arrestin is recruited to the GPCR and the β-galactosidase is activated through enzyme complementation. Cells were grown using standard cell culture techniques and then plated at 30,000 cells/well in 90 μl in a 96 well white, clear bottom plate and incubated overnight. Dilutions were prepared in dilution buffer (HBBS, 20 mMHepes, 0.1% BSA) and 10 μl added per well. Plates were then incubated for 90 min at 37° C. in a water-saturated atmosphere. Plates were then allowed to come to room temp and DiscoveRx's proprietary developing agent added as recommended by the manufacturer. This agent contains a detergent, 6-O-β-galactopyranosyl-luciferen and luciferase. Plates were then incubated for 1 hr at room temperature before being read on a luminometer. Antagonist studies were performed in an identical manner except after the overnight incubation 10 μl media was removed and replaced with drug or naloxone at the indicated concentration. […] To calculate % maximal luminescence, background was subtracted from the experimental values and this was divided by maximal luminescence and multiplied by 100.
To confirm this, and to determine their relative activities, we assessed their efficiency using PathHunter™ Beta-Arrestin GPCR Functional Profiling and Screening cell lines from DiscoveRx (Fremont, Calif.) as described in the Materials and Methods section.

Series [2] concerns sedation (distance traveled). Kind of series: Locomotor open field test. As for the experimental part:
Locomotor Open Field Test.
Sedation and a loss of muscle coordination are common CNS-mediated side effects of opioids. To assess the sedative effects of JT09, rats were given JT09 (20 mg/kg, p.o.) or morphine (10 mg/kg, i.p.) 20 min before placement in an automated (68 l×21 w×21 h cm) activity chambers for a 30 min test. Morphine was used as a comparison group due to its well-known sedative effects.

SMILES strings stand for the structures. A value given as a limit tells only on which side of the number the result lay.

The source of these data is patent US20200316159A1, “SUSTAINED RELEASE COMPOSITIONS OF KAPPA-OPIOID RECEPTOR AGONIST” (JT PHARMACEUTICALS, INC., priority 2016, published 2020).

For the molecule `CCCC[C@@H](NC(=O)[C@@H](Cc1ccccc1)NC(=O)[C@H](N)Cc1ccccc1)C(=O)N[C@H](CCCCN(C)C)C(=O)NCc1ccncc1` [Compound 9], the “maximum administered dose (MAD) without mortality, loss of more than 10% body weight or overt signs of toxicity” value in series [1] was found to be 90 mg/kg. In addition, the “EC50, activation of kappa opioid receptor” value at kappa opioid receptor (PathHunter Beta-Arrestin) is reported as “low nM range”. In addition, the EC50 at kappa opioid receptor (PathHunter Beta-Arrestin, 3-6 repeats, read-out: 95% confidence levels of EC50, activation of kappa receptors) was in the range of 15.3 to 54.5 nM. In addition, on kappa opioid receptor (minimal estimate), the “agonist selectivity for kappa over both mu- and delta-opioid receptors” value is > 33,400. The “locomotor activity (distance traveled) versus saline” value in series [2] (20 mg/kg p.o., 30 min test) is listed as “statistically indistinguishable”. Also, the “locomotor activity relative to morphine” value in series [2] (JT09 20 mg/kg p.o. versus morphine 10 mg/kg i.p., time bins 1, 2 and 5) was “higher locomotor activity”. Besides, the “sedation in locomotor test” value in series [2] (JT09 20 mg/kg p.o., morphine 10 mg/kg i.p.) is reported as “showed no sedation”.
